# Measured values taken from patent publication US6248785A, “IL-8 receptor antagonists” (SmithKline Beecham Corporation, priority 1999, dated 2001).
# Target: T1, recombinant IL-8 Rb, or Type II, receptor (permissive receptor) (Homo sapiens, UniProt P25025)
# T1 construct: expressed in transfected cells; host or cells: Chinese hamster ovary (CHO) cells, membranes
# T1 sequence (P25025 1-360): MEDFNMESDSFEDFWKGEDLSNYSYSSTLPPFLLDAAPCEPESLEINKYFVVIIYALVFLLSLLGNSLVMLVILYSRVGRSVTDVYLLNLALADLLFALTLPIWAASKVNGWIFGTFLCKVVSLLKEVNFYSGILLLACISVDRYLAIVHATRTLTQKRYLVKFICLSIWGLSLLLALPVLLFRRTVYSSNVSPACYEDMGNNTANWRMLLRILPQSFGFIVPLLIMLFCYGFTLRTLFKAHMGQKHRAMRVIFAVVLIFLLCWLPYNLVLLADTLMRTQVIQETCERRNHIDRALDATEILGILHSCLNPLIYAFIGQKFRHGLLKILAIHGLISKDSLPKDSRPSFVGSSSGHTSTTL
# Test: IL-8 receptor binding assay, permissive model (125I IL-8 / 125I Gro-a, CHO membranes)
# Conditions: recombinant human IL-8Rb membranes from Chinese hamster ovary cells; 125I IL-8 (0.25 nM) or 125I Gro-a; 1 hour at room temperature
# Description: [^125 I] IL-8 (human recombinant) is obtained from Amersham Corp., Arlington Heights, Ill., with specific activity 2000 Ci/mmol. Gro-a is obtained from NEN-New England Nuclear. All other chemicals are of analytical grade. High levels of recombinant human IL-8 type a and b receptors were individually expressed in Chinese hamster ovary cells as described previously (Holmes, et al., Science, 1991, 253, 1278). The Chinese hamster ovary membranes were homogenized according to a previously described protocol (Haour, et al., J Biol Chem., 249 pp 2195-2205 (1974)). Except that the homogenization buffer is changed to 10 mM Tris-HCL, 1 mM MgSO4, 0.5 mM EDTA (ethylene-diaminetetra-acetic acid), 1 mMPMSF (a-toluenesulphonyl fluoride), 0.5 mg/L Leupeptin, pH 7.5. Membrane protein concentration is determined using Pierce Co. micro-assay kit using bovine serum albumin as a standard. All assays are performed in a 96-well micro plate format. Each reaction mixture contains ^125 I IL-8 (0.25 nM) or ^125 I Gro-a and 0.5 μg/mL of IL-8Ra or 1.0 μg/mL of IL-8Rb membranes in 20 mM Bis-Trispropane and 0.4 mM Tris HCl buffers, pH 8.0, containing 1.2 mM MgSO4, 0.1 mM EDTA, 25 mM NaCl and 0.03% CHAPS. […] The filter is then dried and counted on the Betaplate liquid scintillation counter. […]
smiles,measurement,value
"N#Cc1ccc(NC(=C[N+](=O)[O-])Nc2ccccc2Br)c(O)c1 [Example 1, 1-Nitro-2-[2-hydroxy-4-cyanophenylamino]-2-[2-bromophenylamino]ethylene]",IC50 in the permissive models for IL-8 receptor inhibition,< 50 µg/mL
